Read-outs that look alike come from different tables or passages of the source.
Assays:
[1] = target: VIM-1 (Pseudomonas aeruginosa, UniProt A0A0F7KYQ8); experiment: IC50 of beta-lactamase inhibition (nitrocefin hydrolysis); type: biochemical; details: IC50 (nM) of drug
[2] = target: T1, SHV-12 (Klebsiella pneumoniae, UniProt P0AD64, E235K/G234S/L31Q); experiment: as above; type: biochemical; details: read-out: IC50 (nM) of drug
[3] = target: CTX-M-14 (Escherichia coli, UniProt Q9L5C7); experiment: as above; type: biochemical; details: read-out: IC50 (nM) of drug
[4] = target: IMP-1 (Serratia marcescens, UniProt P52699); experiment: IC50 of beta-lactamase inhibition (imipenem hydrolysis); type: biochemical
[5] = target: P99 (Enterobacter cloacae, UniProt P05364); experiment: IC50 of beta-lactamase inhibition (nitrocefin hydrolysis); type: biochemical
Protocol: (§1) […]; Initial rates of reaction were calculated and exported to Prism software to calculate IC50 values using the “dose-response—inhibition, variable slope (four parameters)” equation. Ki values were calculated by the method of Waley ([31]). This method was previously used to calculate Ki values for boronic fast-on–fast-off BLIs.

[6] = target: T2, NDM-1 (Klebsiella pneumoniae, UniProt C7C422); experiment: biochemical
[7] = test system: O=C(Cc1cccs1)N[C@@H]1C(=O)N2C(C(=O)O)=C(/C=C/c3ccc([N+](=O)[O-])cc3[N+](=O)[O-])CS[C@H]12; experiment: purified protein, by the assay type
[8] = target: CTX-M-15 (Escherichia coli, UniProt Q9EXV5); experiment: IC50 of beta-lactamase inhibition (nitrocefin hydrolysis); type: biochemical; details: read-out: IC50 (nM) of drug
Protocol: as §1

[9] = target: T1, SHV-12; type: biochemical
[10] = target: TEM-43 (Escherichia coli, UniProt P62593, E102K/M180T/R162H, species not given); type: biochemical; details: hydrolysis by TEM-43
[11] = target: KPC-3 (Klebsiella pneumoniae, UniProt Q9F663, H272Y); type: biochemical; details: hydrolysis by KPC-3
[12] = target: BKC-1 (Klebsiella pneumoniae, UniProt A0A0F6QEY8); experiment: Km and kcat of nitrocefin or imipenem hydrolysis; type: biochemical; details: hydrolysis by BKC-1
[13] = target: FRI-1 (Enterobacter cloacae, UniProt A0A0M5L4T8); experiment: Km and kcat of nitrocefin or imipenem hydrolysis; type: biochemical; details: hydrolysis by FRI-1
[14] = target: T2, NDM-1; type: biochemical
[15] = target: SME-2 (Serratia marcescens, UniProt P52682, V207Q); type: biochemical
[16] = target: IMP-26 (Pseudomonas aeruginosa, UniProt D0V558); type: biochemical; details: hydrolysis by IMP-26
[17] = target: TEM-10 (Escherichia coli, UniProt P62593, E237K/R162S); details: hydrolysis by TEM-10
[18] = target: KPC-2 (Klebsiella pneumoniae, UniProt Q9F663); type: biochemical

| Molecule | IC50 [1] [nM] | IC50 [2] [nM] | IC50 [3] [nM] | IC50 [4] [nM] | IC50 [6] [nM] | Km [7] [µM] | kcat [7] [s⁻¹] | kcat/Km [7] [M⁻¹ s⁻¹] | further results |
| --- | --- | --- | --- | --- | --- | --- | --- | --- | --- |
| O=C(NC1CCNCC1)[C@@H]1CC[C@@H]2CN1C(=O)N2OS(=O)(=O)O [Relebactam, relebactam] | > 160000 | 330 ± 50 | 34 ± 10 | > 160000 | > 160000 |  |  |  | IC50 ([5]; P99, class C, substrate nitrocefin, 10 min preincubation at 37°C, read-out: IC50 (nM) of drug): 36 ± 4 nM |
| (Pseudomonas aeruginosa PAO1) |  |  |  |  |  | 55 | 133 | 2.4e+06 |  |
| (Serratia marcescens) |  |  |  |  |  | 26 | 229 | 8.9e+06 |  |
| NC(=O)[C@@H]1CC[C@@H]2CN1C(=O)N2OS(=O)(=O)O [Avibactam, avibactam] | > 160000 | 0.61 ± 0.19 | 1.4 ± 0.4 | > 160000 | > 160000 |  |  |  | IC50 ([5]; IC50 (nM) of drug): 26 ± 7 nM; IC50 [8]: 0.56 ± 0.25 nM |
| (Enterobacter cloacae) |  |  |  |  |  | 100 | 479 | 4.8e+06 |  |
| O=C(Cc1cccs1)N[C@@H]1C(=O)N2C(C(=O)O)=C(/C=C/c3ccc([N+](=O)[O-])cc3[N+](=O)[O-])CS[C@H]12 [Nitrocefin, nitrocefin] |  |  |  |  |  |  |  |  | Km [9]: 5.5 µM; kcat ([9]; hydrolysis by SHV-12): 73 s⁻¹; kcat [10]: 175 s⁻¹; kcat [11]: 182 s⁻¹; kcat [12]: 721 s⁻¹; kcat [13]: 176 s⁻¹; Km [14]: 1.6 µM; kcat ([14]; hydrolysis by NDM-1): 27 s⁻¹; Km [15]: 59 µM; kcat ([15]; hydrolysis by SME-2): 352 s⁻¹; kcat [16]: 325 s⁻¹; kcat [17]: 18 s⁻¹; Km [18]: 49 µM; kcat ([18]; hydrolysis by KPC-2): 206 s⁻¹ |

From article PMC7269513 (Antimicrobial Agents and Chemotherapy, 2020)
